Experimental data reported in patent US5096886A, “Antibacterial polypeptides” (Kabigen AB, priority 1989, dated 1992).
No end group written: not given here.

Experiments:
Assay type in all cases: cell-based
[1] = tested on: Escherichia coli K12, D21; assay: Antibacterial lethal concentration, thin agarose plates; settings: lowest concentration that inhibits growth in thin agarose plates
Method: (§1) The polypetide obtained in Example 2 was tested for antibacterial activity against different bacteria, the activity being given as lethal concentrations in micro-moles per liter (μM).
(§2) The four last strains of E. coli were obtained from Olof Soderlind, SVA, Uppsala and they are clinical isolates that are pathogenic to piglets. Typing of O and K antigens are indicated after the strain number. Lethal concentration is the lowest concentration of cecropin that inhibits growth of the respective bacteria in thin agarose plates (see Hultmark, D. et al. EMCO J. 2, 571-576 (1983).

[2] = tested on: Streptococcus pyogenes; assay: as above
Method: as §1, §2

[3] = tested on: Escherichia coli 853/67, 0149, K88; assay: as above; settings: clinical isolate pathogenic to piglets
Method: as §1, §2

[4] = tested on: Staphylococcus aureus, Cowan 1; assay: as above
Method: as §1, §2

[5] = tested on: Acinetobacter calcoaceticus, Ac11; assay: as above
Method: as §1, §2

[6] = tested on: Escherichia coli Bd4462/84, O101, K99; assay: as above; settings: clinical isolate pathogenic to piglets
Method: as §1, §2

[7] = tested on: Bacillus megaterium, Bm11; assay: as above
Method: as §1, §2

[8] = tested on: Pseudomonas aeruginosa, OT97; assay: as above
Method: as §1, §2

[9] = tested on: Escherichia coli Bd4468/84, O64, K99; assay: as above; settings: clinical isolate pathogenic to piglets
Method: as §1, §2

[10] = tested on: Salmonella typhimurium, LT2; assay: as above
Method: as §1, §2

[11] = tested on: Escherichia coli Bd2221/75, O8, K88; assay: as above; settings: clinical isolate pathogenic to piglets
Method: as §1, §2

[12] = tested on: Proteus vulgaris, Pv11; assay: as above
Method: as §1, §2

[13] = tested on: bacteria; assay: Overall comparison of antibacterial activity of the two forms; settings: comparison of the C-terminal amide with the free-acid form (Example 3)
Method: as §1, §2

Substance	Antibacterial activity as lethal concentration [1] [µM]	Antibacterial activity as lethal concentration [2] [µM]	Antibacterial activity as lethal concentration [3] [µM]	Antibacterial activity as lethal concentration [4] [µM]	Antibacterial activity as lethal concentration [5] [µM]	Antibacterial activity as lethal concentration [6] [µM]	Antibacterial activity as lethal concentration [7] [µM]	Antibacterial activity as lethal concentration [8] [µM]	Antibacterial activity as lethal concentration [9] [µM]	Antibacterial activity as lethal concentration [10] [µM]	Antibacterial activity as lethal concentration [11] [µM]	Antibacterial activity as lethal concentration [12] [µM]	antibiotic quality, amidated form versus free acid [13]
SWLSKTAKKLENSAKKRISEGIAIAIQGGPR [P1-OH, H2 N-Ser-Trp-Leu-Ser-Lys-Thr-Ala-Lys-Lys-Leu-Glu-Asn-Ser-Ala-Lys-Lys-Arg-Ile- Ser-Glu-Gly-Ile-Ala-Ile-Ala-Ile-Gln-Gly-Gly-Pro-Arg-COOH]	0.4	44	0.6	> 520	0.5	0.8	5.3	13	0.6	1.7	0.7	12	–
SWLSKTAKKLENSAKKRISEGIAIAIQGGPR-NH2 [P1-NH2]	0.3	19	0.9	> 490	0.2	0.7	1.8	5.9	0.3	0.9	0.6	5.7	better antibiotic
